Source: patent publication US20230115335A1, “PYRAZOLE DERIVATIVES WITH ANTICANCER ACTIVITY” (BOARD OF REGENTS, THE UNIVERSITY OF TEXAS SYSTEM, priority 2021, published 2023)
“Also recorded” adds a separate entry of the source. Where two headings read alike, the source gives them in different places.

How the values were obtained:
MDA-MB231 = test: DNS cytotoxicity assay, MDA-MB-231; assay type: cell-based; conditions: Homo sapiens
Experimental: (§1) Since the non-adherent (free floating) lymphoma/leukemia cell lines divide faster than the adherent cell lines, they were incubated for a shorter period (48 h) of time with the compound.
(§2) Lymphoma/leukemia cell lines, which grow in suspension, were incubated for 48 h with the compounds. […] After treatment, images were acquired and analyzed to determine percentages of live/dead cells and their cytotoxicity. […] The Hs-27 non-cancerous human foreskin fibroblast cell line was used for comparison purposes.

[1] = DNS cytotoxicity assay, MCF10A; assay type: cell-based; conditions: human, MCF10A non-cancerous cells, 72 hr incubations, read-out: Cell Line CC50 MCF10A*
Experimental: as §1

[2] = DNS cytotoxicity assay, HS-27 non-cancerous fibroblast; assay type: cell-based; conditions: human, Hs-27 non-cancerous foreskin fibroblast cells
Experimental: as §1, §2

CEM cell line = test: DNS cytotoxicity assay, CEM; assay type: cell-based, human
Excerpt: […] […] After treatment, images were acquired and analyzed to determine percentages of live/dead cells and their cytotoxicity. […] The Hs-27 non-cancerous human foreskin fibroblast cell line was used for comparison purposes.

RAMOS = test: DNS cytotoxicity assay, RAMOS; assay type: cell-based; conditions: Homo sapiens, Lymphoma-Leukemia, 48 hrs
Excerpt: (§3) Using the high throughput Differential Nuclear Staining (DNS) screening assay (Lema et al., Current Cellular Biochemistry 1, 1-14, 2011) 15 pyrazole compounds were synthesized and screened on the human T-cell Acute Lymphoblastic Leukemia CEM cell line (Tables 1 and 2). […] The compounds were synthesized based on a pyrazole backbone structure previously determined to have potent cytotoxic activity (FIG. 5). Several commercial and non-commercial analogues (see Table 3) have been tested and determined that the ones with highest activity have a similar structure circled in FIG. 5. […] SSK-3 has been tested on a few cancer cell lines (see Table 4) and also found to induce programmed cell death via a variety of biochemical assays. […] Since the non-adherent (free floating) lymphoma/leukemia cell lines divide faster than the adherent cell lines, they were incubated for a shorter period (48 h) of time with the compound.
(§4) SSK-3 has potent cytotoxic activity against a panel of human cancer cell lines. The cytotoxic activity of SSK-3 was examined by the DNS assay (Lema et al., Current Cellular Biochemistry 1, 1-14, 2011). Lymphoma/leukemia cell lines, which grow in suspension, were incubated for 48 h with the compounds. […] After treatment, images were acquired and analyzed to determine percentages of live/dead cells and their cytotoxicity. […]

HL-60 = test: DNS cytotoxicity assay, HL-60; assay type: cell-based; conditions: Homo sapiens, Lymphoma-Leukemia, 48 hrs
Excerpt: as §3, §4

Jurkat = test: DNS cytotoxicity assay, Jurkat; assay type: cell-based, human
Excerpt: as §3
SSK-3 has potent cytotoxic activity against a panel of human cancer cell lines. The cytotoxic activity of SSK-3 was examined by the DNS assay (Lema et al., Current Cellular Biochemistry 1, 1-14, 2011). Lymphoma/leukemia cell lines, which grow in suspension, were incubated for 48 h with the compounds. Since the adherent cells generally divide at a slower rate than the non-adherent cell lines, the MDA-MB231, HCC1419, T47D, COLO205, PANC-1, A-549 adherent cancer cells lines were incubated for 72 h in the presence of the compounds. After treatment, images were acquired and analyzed to determine percentages of live/dead cells and their cytotoxicity. […] The Hs-27 non-cancerous human foreskin fibroblast cell line was used for comparison purposes.

NALM-6 = test: DNS cytotoxicity assay, NALM-6; assay type: cell-based; conditions: Homo sapiens, Lymphoma-Leukemia, 48 hrs
Excerpt: as §3, §4

K562 = test: DNS cytotoxicity assay, K562; assay type: cell-based; conditions: Homo sapiens, Lymphoma-Leukemia, 48 hrs
Excerpt: as §3, §4

MiNO = test: DNS cytotoxicity assay, MiNO; assay type: cell-based; conditions: Homo sapiens, Mantle cell Lymphoma, 48 or 72 hrs
Excerpt: as §3, §4

Jeko-1 = test: DNS cytotoxicity assay, Jeko-1; assay type: cell-based; conditions: Homo sapiens, Mantle cell Lymphoma, 48 or 72 hrs
Excerpt: as §3, §4

Z138 = test: DNS cytotoxicity assay, Z138; assay type: cell-based; conditions: Homo sapiens, Z-138; Mantle cell Lymphoma; 48 or 72 hrs
Excerpt: as §3, §4

JVM-2 = test: DNS cytotoxicity assay, JVM-2; assay type: cell-based; conditions: Homo sapiens, Mantle cell Lymphoma, 48 or 72 hrs
Excerpt: as §3, §4

JVM-13 = test: DNS cytotoxicity assay, JVM-13; assay type: cell-based; conditions: Homo sapiens, JVM13; Mantle cell Lymphoma; 48 or 72 hrs
Excerpt: as §3, §4

MM.1S = test: DNS cytotoxicity assay, MM.1S; assay type: cell-based; conditions: Homo sapiens, MM1.S; Multiple Myeloma; 48 or 72 hrs
Excerpt: as §3, §4

MM.1R = test: DNS cytotoxicity assay, MM.1R; assay type: cell-based; conditions: Homo sapiens, Multiple Myeloma, 48 or 72 hrs
Excerpt: as §3, §4

U226 = test: DNS cytotoxicity assay, U226; assay type: cell-based; conditions: Homo sapiens, Multiple Myeloma, 48 or 72 hrs
Excerpt: as §3, §4

RPMI-8226 = test: DNS cytotoxicity assay, RPMI-8226; assay type: cell-based; conditions: Homo sapiens, Multiple Myeloma, 48 or 72 hrs
Excerpt: as §3, §4

MDA-468 = test: DNS cytotoxicity assay, MDA-468; assay type: cell-based; conditions: Homo sapiens; Breat Cancer; 72 hrs
Excerpt: as §3, §4

HCC1419 = test: DNS cytotoxicity assay, HCC1419; assay type: cell-based; conditions: Homo sapiens, Breat Cancer, 72 hrs
Excerpt: as §3, §4

T47D = test: DNS cytotoxicity assay, T47D; assay type: cell-based; conditions: Homo sapiens, Breat Cancer, 72 hrs
Excerpt: as §3, §4

PANC-1 = test: DNS cytotoxicity assay, PANC-1; assay type: cell-based; conditions: Homo sapiens, Pancreatic cancer, 72 hrs
Excerpt: as §3, §4

Colo 205 = test: DNS cytotoxicity assay, Colo 205; assay type: cell-based; conditions: Homo sapiens, Colon Cancer, 72 hrs
Excerpt: as §3, §4

CEM cells [3] = test: Phosphatidylserine externalization, Annexin V-FITC/PI assay; assay type: cell-based, human; conditions: CC50 and 2×CC50 (0.24 and 0.48 μM printed), vs solvent control
Experimental: FIG. 1. […] CEM cells were treated at the CC50 and twice (2×) that concentration of SSK-3. Note that PS externalization is an early marker of apoptosis. * Indicates P value less than 0.001.
SSK-3 induces significant phosphatidylserine externalization. To corrobotate whether SSK-3 utilizes apoptosis to induce cell death, we measured phosphatidylserine (PS) externalization in SSK-3-treated CEM cells by using the Annexin V-FITC/PI assay (3, 4).

CEM cells [4] = test: Mitochondrial depolarization; assay type: cell-based, human; conditions: CC50 and 2×CC50
Experimental: (§5) FIG. 2A-2C. […] CEM cells were treated at the CC50 and twice (2×) that concentration of SSK-3.
(§6) SSK-3 induces caspase-3 activation. Mitochondrial depolarization is one of the salient features of cell-death induction and this was observed after treatment of CEM cells with SSK-3 (FIG. 2A). […] CEM cells were treated with SSK-3 for 7 h and subsequently stained with the NucView caspase-3 substrate and analyzed via flow cytometry (Gutierrez et al., Cell biology and toxicology 35, 503-19, 2019) (FIG. 2B).

caspase-3 in CEM cells = test: Caspase-3 activation, NucView substrate, flow cytometry; assay type: cell-based, human; conditions: 7 h, P<0.05 vs DMSO control
Experimental: as §5, §6

CEM cells [5] = test: Generation of Reactive Oxygen Species; assay type: cell-based, human; conditions: CC50 and 2×CC50
[6] = test system: membrane microtubule organization; test: Membrane microtubule organization; assay type: cell-based; conditions: 2 hours; vs DMSO control
cell cycle = test: Cell cycle arrest; assay type: cell-based; conditions: data not shown
Tubulin = Tubulin polymerization, biochemical assays
HL-60 leukemia cell line = test: Apoptosis induction in HL-60; assay type: cell-based
CEM cells [7] = test: Mode of cell death: intrinsic apoptosis pathway; assay type: cell-based, human
Experimental: as §5
These compounds were tested in mice at a concentration of 160 mg/kg and after 3-4 daily doses, animals tolerated the treatments well. Different cytotoxicity patterns of the compounds against distinct cell lines has been noted, and it is therefore possible that distinct pyrazoles will act on distinct cellular effectors with different modes of action. However, all of the pyrazole compounds so far tested including SSK-3 induce cell death via the intrinsic apoptosis pathway as will be described below.

[8] = 72 hr incubations, read-out: Cell Line CC50 MDA-MD-231*
[9] = 72 hr incubations, non-cancerous, read-out: Cell Line CC50 HS-27*
[10] = Homo sapiens, CCRF-CEM, Initial Screen, DNS assay, read-out: CEM CC50

O=C(N/N=C/c1ccccc1Br)c1n[nH]c2c1CCC2 [P3C.5]
CC50 (MDA-MB231; [8]): 9880 nM
CC50 at 72 h [1]: 6360 nM
CC50 at 72 h [2, 9]: > 10000 nM

O=C(N/N=C/c1cc(Br)cc(Br)c1O)c1n[nH]c2c1CCC2 [P3C.6]
CC50 (MDA-MB231; [8]): 2530 nM
CC50 at 72 h [1]: 5850 nM
CC50 at 72 h [2, 9]: 9940 nM

COc1ccc(/C=N/NC(=O)c2n[nH]c3c2CCC3)cc1O [P3C.10]
CC50 (MDA-MB231; [8]): 2910 nM
CC50 at 72 h [1]: 2460 nM
CC50 at 72 h [2, 9]: > 10000 nM

O=C1Nc2ccccc2/C1=N/NC(=O)c1n[nH]c2c1CCC2 [SSK-1]
CC50 (CEM cell line; [10]): 12100 ± 1110 nM

O=C1Nc2ccc(F)cc2/C1=N/NC(=O)c1n[nH]c2c1CCC2 [SSK-2]
CC50 (CEM cell line; [10]): > 10000 nM

Cc1ccc2c(c1)/C(=N/NC(=O)c1n[nH]c3c1CCC3)C(=O)N2 [SSK-3, N-(5-methyl-2-oxoindolin-3ylidene)-1,4,5,6-tetrahydrocyclopenta[c]pyrazole-3-carbohydrazide]
CC50 (CEM cell line; Homo sapiens, CCRF-CEM, 48 h, Table 4, Lymphoma-Leukemia, 48 hrs, read-out: CC50 CEM): 1400 nM
CC50 (CEM cell line; Initial Screen, DNS assay, read-out: CEM CC50): 1390 ± 680 nM
CC50 (MDA-MB231; Table 4, Breat Cancer, 72 hrs, read-out: CC50 MDA-MB231): 2300 nM
CC50 at 72 h ([2]; Table 4, Normal Fibroblast, 72 hrs, read-out: CC50 HS27): 15400 nM
CC50 (RAMOS): 1650 nM
CC50 (HL-60): 750 nM
times more cytotoxic toward Jurkat than HS27 (Jurkat; CC50 HS27 / CC50 Jurkat): 37 times
CC50 (Jurkat; Homo sapiens, Jurkat, Lymphoma-Leukemia, 48 hrs): 420 nM
CC50 (NALM-6): 2040 nM
CC50 (K562): 2130 nM
CC50 (MiNO): 1070 nM
CC50 (Jeko-1): 1240 nM
CC50 (Z138): 3360 nM
CC50 (JVM-2): 790 nM
CC50 (JVM-13): 790 nM
CC50 (MM.1S): 4610 nM
CC50 (MM.1R): 3880 nM
CC50 (U226): 4440 nM
CC50 (RPMI-8226): 2470 nM
CC50 (MDA-468): 3980 nM
CC50 (HCC1419): > 20000 nM
CC50 (T47D): 3870 nM
CC50 (PANC-1): 1860 nM
CC50 (Colo 205): 2430 nM
PS externalization (CEM cells [3]): induces significant PS externalization in a dose-response manner; also recorded: Induction of Phosphatidylserine (PS) externalization
Mitochondrial depolarization (CEM cells [4]): Mitochondrial depolarization was observed
caspase-3 activation (caspase-3 in CEM cells): induced a statistically significant activation of caspase-3; also recorded: Activation of Caspase 3 was detected
Generation of Reactive Oxygen Species (ROS) (CEM cells [5]): led to the generation of Reactive Oxygen Species (ROS)
disruption of membrane microtubule organization [6]: severe disruption of membrane microtubule organization
cell cycle arrest (cell cycle): cause cell cycle arrest and interfere with cellular replication
Tubulin polymerization inhibition (Tubulin): inhibiting tubulin polymerization
induction of apoptosis (HL-60 leukemia cell line): induced apoptosis via mitochondrial depolarization and phosphatidylserine membrane exposure
induction of the intrinsic apoptosis pathway (CEM cells [7]): induces the intrinsic apoptosis pathway
